Data published in patent US12590062B2, “PD-1/PD-L1 inhibitors” (Gilead Sciences, Inc., priority 2017, dated 2026).

Biological target: T1, PD-1/PD-L1 interaction (Homo sapiens, UniProt Q9NZQ7)
T1 construct: expressed in transfected cells; host or cells: CHO cells (aAPC-PD-L1) co-cultured with Jurkat cells overexpressing PD-1 and an NFAT-luciferase reporter
Assay: PD-1/PD-L1 NFAT reporter co-culture assay
Assay type: cell-based
Details: Jurkat PD-1 NFAT-luciferase cells co-cultured with aAPC-PD-L1 CHO cells, 6 hrs at 37° C.; read-out: EC50 NFAT Luciferase
Experimental: PD-1/PD-L1 NEAT Reporter Assay:
Compounds were tested in afunctional co-culture reporter assay in which TCR-mediated NFAT activity is inhibited by the engagement of PD-1 with PD-L1. […] CHO cells expressing surface-bound anti-CD3 antibodies and PD-L1 (artificial antigen presenting cells, aAPC-PD-L1) were first seeded overnight. Jurkat cells overexpressing PD-1 and expressing a luciferase construct under NFAT control are diluted in RPMI assay medium (RPMI 1640 with 2% FBS), mixed with compounds, and immediately seeded on the monolayer of aAPC-PD-L1. The co-culture is then incubated for 6 hrs at 37° C. Luciferase activity is assessed by adding the ONE-Glo reagent and measuring luminescence with a plate reader. EC50 values are calculated from the fit of the dose-response curves to a four-parameter equation (Table 3).

T1 sequence (Q9NZQ7 19-290): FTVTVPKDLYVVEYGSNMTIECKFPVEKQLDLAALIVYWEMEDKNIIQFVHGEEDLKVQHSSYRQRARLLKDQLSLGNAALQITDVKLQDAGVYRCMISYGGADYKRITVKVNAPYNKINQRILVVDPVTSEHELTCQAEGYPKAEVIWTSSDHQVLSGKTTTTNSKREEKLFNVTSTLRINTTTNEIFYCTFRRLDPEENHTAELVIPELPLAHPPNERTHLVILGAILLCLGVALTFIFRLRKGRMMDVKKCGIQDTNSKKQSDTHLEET

Structure (SMILES)	EC50 [nM]
COc1nc(OCc2cccc(-c3cccc(COc4nc(OC)c(CNCC(=O)NS(C)(=O)=O)cc4Cl)c3C)c2C)c(Cl)cc1CNCC(=O)NS(C)(=O)=O [Example 168, 2,2′-((((((2,2′-Dimethyl-[1,1′-biphenyl]-3,3′-diyl)bis(methylene))bis(oxy))bis(5-chloro-2-methoxypyridine-6,3-diyl))bis(methylene))bis(azanediyl))bis(N-(methylsulfonyl)acetamide)]	308
COc1nc(OCc2cccc(-c3cccc(COc4nc(OC)c(CNCc5nnn[nH]5)cc4Cl)c3C)c2C)c(Cl)cc1CNCc1nnn[nH]1 [Example 169, 1,1′-((((2,2′-dimethyl-[1,1′-biphenyl]-3,3′-diyl)bis(methylene))bis(oxy))bis(5-chloro-2-methoxypyridine-6,3-diyl))bis(N-((1H-tetrazol-5-yl)methyl)methanamine)]	225
COc1nc(OCc2cccc(-c3cccc(COc4nc(OC)c(CNCc5nnc(C)o5)cc4Cl)c3C)c2C)c(Cl)cc1CNCc1nnc(C)o1 [Example 170, 1,1′-((((2,2′-dimethyl-[1,1′-biphenyl]-3,3′-diyl)bis(methylene))bis(oxy))bis(5-chloro-2-methoxypyridine-6,3-diyl))bis(N-((5-methyl-1,3,4-oxadiazol-2-yl)methyl)methanamine)]	≥ 50000
COc1nc(OCc2cccc(-c3cccc(COc4nc(OC)c(CN[C@@H]5CONC5=O)cc4Cl)c3C)c2C)c(Cl)cc1CN[C@@H]1CONC1=O [Example 173, (4R,4′R)-4,4′-((((((2,2′-dimethyl-[1,1′-biphenyl]-3,3′-diyl)bis(methylene))bis(oxy))bis(5-chloro-2-methoxypyridine-6,3-diyl))bis(methylene))bis(azanediyl))bis(isoxazolidin-3-one)]	≥ 50000
COc1nc(OCc2cccc(-c3cccc(COc4nc(OC)c(CNCC(=O)NS(=O)(=O)N(C)C)cc4Cl)c3C)c2C)c(Cl)cc1CNCC(=O)NS(=O)(=O)N(C)C [Example 174, 2,2′-((((((2,2′-dimethyl-[1,1′-biphenyl]-3,3′-diyl)bis(methylene))bis(oxy))bis(5-chloro-2-methoxypyridine-6,3-diyl))bis(methylene))bis(azanediyl))bis(N-(N,N-dimethylsulfamoyl)acetamide)]	≥ 50000
COc1nc(OCc2cccc(-c3cccc(COc4nc(OC)c(CNCC5(O)CC5)cc4Cl)c3C)c2C)c(Cl)cc1CNCC1(O)CC1 [Example 175, 1,1′-(((((((2,2′-dimethyl-[1,1′-biphenyl]-3,3′-diyl)bis(methylene))bis(oxy))bis(5-chloro-2-methoxypyridine-6,3-diyl))bis(methylene))bis(azanediyl))bis(methylene))bis(cyclopropan-1-ol)]	808

Now from value to compound:

EC50 [nM]	Structure (SMILES)
158	Cc1c(COc2nc(OCc3cc(C#N)cc(C#N)c3)c(CNCC(=O)O)cc2Cl)cccc1-c1cccc(COc2nc(OCc3cc(C#N)cc(C#N)c3)c(CNCC(=O)O)cc2Cl)c1C [Example 125, 2,2′-((((((2,2′-dimethyl-[1,1′-biphenyl]-3,3′-diyl)bis(methylene))bis(oxy))bis(5-chloro-2-((3,5-dicyanobenzyl)oxy)pyridine-6,3-diyl))bis(methylene))bis(azanediyl))diacetic acid]
234	Cc1c(COc2nc(OCCc3cc(C#N)ccn3)c(CNC[C@@H](O)CC(=O)O)cc2Br)cccc1-c1cccc(COc2nc(OCCc3cc(C#N)ccn3)c(CNC[C@@H](O)CC(=O)O)cc2Br)c1C [Example 128, (3S,3′S)-4,4′-((((((2,2′-dimethyl-[1,1′-biphenyl]-3,3′-diyl)bis(methylene))bis(oxy))bis(5-bromo-2-(2-(4-cyanopyridin-2-yl)ethoxy)pyridine-6,3-diyl))bis(methylene))bis(azanediyl))bis(3-hydroxybutanoic acid)]
529	Cc1c(COc2nc(OCc3cnn(C)c3)c(CNC[C@@H](O)CC(=O)O)cc2Cl)cccc1-c1cccc(COc2nc(OCc3cnn(C)c3)c(CNC[C@@H](O)CC(=O)O)cc2Cl)c1C [Example 136, (3S,3′S)-4,4′-((((((2,2′-dimethyl-[1,1′-biphenyl]-3,3′-diyl)bis(methylene))bis(oxy))bis(5-chloro-2-((1-methyl-1H-pyrazol-4-yl)methoxy)pyridine-6,3-diyl))bis(methylene))bis(azanediyl))bis(3-hydroxybutanoic acid)]
239	Cc1c(COc2nc(OCc3ccc(F)c(C#N)c3)c(CNC[C@@H](O)CC(=O)O)cc2Br)cccc1-c1cccc(COc2nc(OCc3ccc(F)c(C#N)c3)c(CNC[C@@H](O)CC(=O)O)cc2Br)c1C [Example 140, (3S,3′S)-4,4′-((((((2,2′-dimethyl-[1,1′-biphenyl]-3,3′-diyl)bis(methylene))bis(oxy))bis(5-bromo-2-((3-cyano-4-fluorobenzyl)oxy)pyridine-6,3-diyl))bis(methylene))bis(azanediyl))bis(3-hydroxybutanoic acid)]
235	Cc1c(COc2nc(OCCc3cc[nH]n3)c(CNC[C@@H](O)CC(=O)O)cc2Br)cccc1-c1cccc(COc2nc(OCCc3cc[nH]n3)c(CNC[C@@H](O)CC(=O)O)cc2Br)c1C [Example 142, (3S,3′S)-4,4′-((((((2,2′-dimethyl-[1,1′-biphenyl]-3,3′-diyl)bis(methylene))bis(oxy))bis(2-(2-(1H-pyrazol-3-yl)ethoxy)-5-bromopyridine-6,3-diyl))bis(methylene))bis(azanediyl))bis(3-hydroxybutanoic acid)]
594	Cc1c(COc2nc(OCc3cccc(C#N)n3)c(CNC[C@@H](O)CC(=O)O)cc2Br)cccc1-c1cccc(COc2nc(OCc3cccc(C#N)n3)c(CNC[C@@H](O)CC(=O)O)cc2Br)c1C [Example 152, (3S,3′S)-4,4′-((((((2,2′-dimethyl-[1,1′-biphenyl]-3,3′-diyl)bis(methylene))bis(oxy))bis(5-bromo-2-((6-cyanopyridin-2-yl)methoxy)pyridine-6,3-diyl))bis(methylene))bis(azanediyl))bis(3-hydroxybutanoic acid)]
329	Cc1c(COc2nc(OCc3cccc(C#N)c3)c(CNC[C@@H](O)CC(=O)O)cc2Cl)cccc1-c1cccc(COc2nc(OCc3cccc(C#N)c3)c(CNC[C@@H](O)CC(=O)O)cc2Cl)c1C [Example 153, (3S,3′S)-4,4′-((((((2,2′-dimethyl-[1,1′-biphenyl]-3,3′-diyl)bis(methylene))bis(oxy))bis(5-chloro-2-((3-cyanobenzyl)oxy)pyridine-6,3-diyl))bis(methylene))bis(azanediyl))bis(3-hydroxybutanoic acid)]
7720	COc1nc(OCc2cccc(-c3cccc(COc4nc(OC)c(CNCc5c[nH]nn5)cc4Cl)c3C)c2C)c(Cl)cc1CNCc1c[nH]nn1 [Example 171, 1,1′-((((2,2′-dimethyl-[1,1′-biphenyl]-3,3′-diyl)bis(methylene))bis(oxy))bis(5-chloro-2-methoxypyridine-6,3-diyl))bis(N-((1H-1,2,3-triazol-4-yl)methyl)methanamine)]
2880	COc1nc(OCc2cccc(-c3cccc(COc4nc(OC)c(CNCC(O)C(F)F)cc4Cl)c3C)c2C)c(Cl)cc1CNCC(O)C(F)F (stereo not drawn) [Example 176, 3,3′-((((((2,2′-dimethyl-[1,1′-biphenyl]-3,3′-diyl)bis(methylene))bis(oxy))bis(5-chloro-2-methoxypyridine-6,3-diyl))bis(methylene))bis(azanediyl))bis(1,1-difluoropropan-2-ol)]
